Test results as given in publication PMC9865903, “Improving the Antimycobacterial Drug Clofazimine through Formation of Organic Salts by Combination with Fluoroquinolones” (International Journal of Molecular Sciences, 2023).
Several values for one entry are separate records, joined by “and”; a condition that tells them apart may be missing. Equal entries are not always repeated.

Tests used:
[1] = Simultaneous thermal analysis (STA: thermogravimetry with DSC); assay type: physicochemical; settings: heating from room temperature to 500 °C at 5 °C/min, value in parentheses after melting point
Excerpt: Considering that thermal stability is an important issue for any API or derived formulation, both API-OSs were next tested by simultaneous thermal analysis (STA) which combines thermogravimetry with differential scanning calorimetry. Thermograms were obtained for the API-OSs and their parent fluoroquinolones (Figure 2), providing their respective melting points and decomposition temperatures. As shown in both Figure 2 and Table 1, the two new API-OSs have melting points lower than those of their respective parent APIs, as expected, but in all cases well above 100 °C, which is generally acknowledged as the threshold temperature separating common ILs from other types of GUMBOS. […] Therefore, the thermostability of this parent antimycobacterial drug is improved when it is forming an ionic pair with the selected fluoroquinolones.
The thermal stability of the compounds was evaluated using a Hitachi STA7200RV instrument (Scancsi, Vila Nova de Gaia, Portugal), following the manufacturer’s instructions. The compounds were subjected to heating from room temperature to 500 °C at a speed of 5 °C/min, obtaining the thermograms provided in Figure 2.

M. avium 2447 SmT = test: Antimycobacterial activity in axenic culture, broth microdilution with resazurin; assay type: cell-based; settings: Mycobacterium avium, 168 h, 7 days at 37 °C, 4PL interpolation, parentheses = 95% confidence interval
Experimental: The susceptibility of M. avium to the API-OSs and their parent drugs was first assessed in axenic culture to determine the IC50 of each test compound. To this end, the bacteria were incubated with increasing concentrations of the compounds for 7 days at 37 °C and their viability was assessed by the resazurin assay.
Mycobacterium avium 2447 smooth transparent (SmT) strain (kindly provided by Dr. F. Portaels, Institute of Tropical Medicine, Antwerp, Belgium) was grown to the mid-log phase in Middlebrook 7H9 medium (BD Difco^TM, Fisher Scientific, Porto Salvo, Portugal) containing 0.2% of glycerol (VWR International, Carnaxide, Portugal) and 10% of Albumin-Dextrose-Catalase (ADC, Merck KGaA, Darmstadt, Germany) supplement at 37 °C, as described previously.
The antimicrobial activity of the different compounds was assessed by broth microdilution, following the Clinical and Laboratory Standards Institute (CLSI) guidelines and as described previously, using stock solutions of the compounds in DMSO, due to the negligible solubility of Clf in water. Briefly, M. avium was grown in Middlebrook 7H9 medium to the exponential phase and 1 to 5 × 10^5 CFU/mL of bacteria was seeded in 96-well plates with increasing concentrations of the compounds. […] After 6 days of incubation, bacterial viability was assessed by resazurin reduction. Then, 10% (v/v) of resazurin (Sigma-Aldrich, St. Louis, MO, USA) at 2.5 mM in phosphate-buffered saline (PBS, Sigma-Aldrich, St. Louis, MO, USA) was added to each well, and after 24 h of incubation at 37 °C, the fluorescence of resorufin, resulting from the conversion of resazurin by metabolically active cells, was measured at λex = 530 nm and λem = 590 nm in a Synergy^TM Mx microplate reader from BioTek (Agilent Technologies Inc., Santa Clara, CA, USA) using the Gen5 software also from BioTek. The results are expressed as the percentage of the fluorescence obtained in experimental wells relative to the fluorescence obtained in nontreated wells.
The viability of both mycobacteria and host macrophages was determined by resazurin reduction as detailed above. […]

physchem = settings: organic solvent or mixture
Excerpt: DMSO has been previously established as an adequate solvent for studies focused on Clf, including susceptibility testing on Mycobacteria.

[2] = Toxicity to infected host macrophages, resazurin reduction; assay type: cell-based, murine (C57BL/6 mice); settings: male, C57BL/6, mouse; BMM infected with M. avium 2447 SmT, 5 days at 37 °C and 7% CO2, resazurin; 4PL interpolation; parentheses = 95% confidence interval; read-out: LC50
Experimental: Considering that, after invading its mammalian host, M. avium replicates mainly inside macrophages, the toxicity of test compounds to infected murine bone marrow-derived macrophages (BMM) was also assessed. This was carried out by treating BMM infected with M. avium 2447 SmT with increasing concentrations of the test compounds for 5 days at 37 °C and 7% CO2. Macrophage viability was assessed through a resazurin reduction assay. As shown in Table 1 and Figure 4, though being more toxic to mammalian cells than their parent fluoroquinolones, the Clf-derived OSs seem less toxic to BMM than Clf itself. We are aware that the confidence intervals for LD50 values shown in Table 1 for Clf and its derived OSs have some degree of overlap which, alongside the large standard deviations depicted on the macrophage viability curves shown in Figure 4, are not statistically significant different.
Macrophages were derived from the bone marrow of male C57BL/6 mice bred at the i3S animal facility and infected with M. avium 2447 SmT as described previously. Immediately after infection, BMM were treated with different concentrations of each compound. Each condition was tested in triplicate. The intracellular growth of M. avium 2447 SmT was evaluated 5 days after infection, by colony-forming units (CFUs) assay, plating the bacteria in Middlebrook 7H10 agar (BD DifcoTM, Fisher Scientific, Porto Salvo, Portugal) supplemented with 10% Oleic Acid-Albumin-Dextrose-Catalase (OADC; Merck KGaA, Darmstadt, Germany) for at least 7 days at 37 °C. The viability of macrophages was determined by resazurin reduction as detailed above for mycobacteria.
The viability of both mycobacteria and host macrophages was determined by resazurin reduction as detailed above. IC50 (concentration that inhibits 50% of mycobacterial growth after 7 days of incubation) and LD50 (concentration that inhibits 50% of macrophage viability) values were interpolated by fitting the experimental data through a 4PL nonlinear sigmoidal curve using the GraphPad Prism software version 9 (GraphPad Software Inc., La Jolla, CA, USA). […]

[3] = set-up: method as in PMID 7617530, PMID 35300192; settings: due to poor solubility in aqueous/polar media; cited from earlier work
[4] = in vivo, po; cited from earlier work
[5] = Net charge at physiological pH; assay type: physicochemical; settings: at physiological pH 7.4
Experimental: Table 1 Physico-chemical properties and in vitro effects of the API-OSs and their parent drugs. The compounds were tested against both axenic cultures of M. avium 2447 SmT (IC50) and mammalian host cells (bone marrow-derived macrophages, BMM, LC50) infected with M. avium 2447 SmT. ^1. | column: Net Charge ^2

[6] = cited from earlier work

Structure (SMILES)	Decomposition Temperature [1]	IC50 (M. avium 2447 SmT)	solubility (physchem)	CC50 at 5 days [2]	Biopharmaceutics Classification System class [3]	absorption rates in humans [4]	Net Charge [5]	solubility in water [6]
CC(C)/N=c1\cc2n(-c3ccc(Cl)cc3)c3ccccc3nc-2cc1Nc1ccc(Cl)cc1 [Clf, clofazimine]	221.9 (258.0) °C	0.33 µM	4800 µg/mL and 10200 µM	4.1 µM	class II	45 to 62%	+1	virtually insoluble
CCn1cc(C(=O)O)c(=O)c2cc(F)c(N3CCNCC3)cc21 [Nf, norfloxacin]	206.1 (222.0) °C	7.93 µM	11000 µg/mL and 34400 µM	> 100 µM			−1	
CC1COc2c(N3CCN(C)CC3)c(F)cc3c(=O)c(C(=O)O)cn1c23 (centres unmarked) [Of, ofloxacin]	274.8 (318.8) °C	3.85 µM		> 100 µM			−1	
